Experimental findings from patent US9763444B2, “Compositions and methods for repelling blood-sucking and biting insects, ticks and mites” (The United States of America, as represented by the …, priority 2013, dated 2017) are described below.

Structures are written as SMILES.

For experiment [1], the system named is Ae. aegypti. Nature of the experiment: Minimum Effective Dosage (MED) test on treated cloth, mosquito repellency. Format: in vivo, Aedes aegypti. To be noted: for Ae. aegypti Minimum Effective Dosage, F1 / Ae. aegypti Minimum Effective Dosage, M1 / Ae. aegypti Minimum Effective Dosage, M2 / Ae. aegypti Minimum Effective Dosage, Average: Table 2; for Ae. aegypti Minimum Effective Dosage, F1: human subject F1; for Ae. aegypti Minimum Effective Dosage, F1 / Ae. aegypti Minimum Effective Dosage, M1 / Ae. aegypti Minimum Effective Dosage, M2: highest concentration 1.500 mg/cm^2; for Ae. aegypti Minimum Effective Dosage, M1: human subject M1; for Ae. aegypti Minimum Effective Dosage, M2: human subject M2; for Ae. aegypti Minimum Effective Dosage, Average: mean of 3 volunteers. As to the method:
Bioassay for mosquito repellent activity: Repellency screening test for experimental chemicals were carried out to identify candidates that might be useful repellents. The repellent efficacy was compared to that of the standard repellent, DEET. Experimental compounds were assessed in one of two ways: (1) a range of concentration was evaluated to determine the minimum effective dosage (MED) which was the concentration threshold of where the repellent began to fail and allowed bites, or (2) a predetermined concentration of each repellent was applied to cloth and the activity was evaluated over several days (or in some cases months) (Katritzky, A. R., et al., Proc. Nat. Acad. Sci. (US), 105, 7359-7364 (2008); Katritzky, A. R., et al., Journal of Med. Entomol., 47: 924-938 (2010)). When conducting assays for repellency, a failure point was also predetermined for those measurements. Since experiments described herein used about 500 female mosquitoes per test, the failure point was set at 1% (equal to 5 bites) received during a test interval. From 3 to 5 volunteers participated in the screening of each set of chemicals.
Minimum Effective Dosage (MED) Test: The MED bioassays on treated cloth were a method of screening to determine the minimum amount of a repellent needed to prevent bites. Experimental compounds were prepared in solution by combining 0.15 g of experimental chemical with 2 mL of acetone in a 7.1 mL screwtop glass vial. This solution was then serially diluted to obtain nine concentrations when applied on to the cloth patch: 1.5, 0.75, 0.375, 0.187, 0.094, 0.047, 0.023, 0.011, and 0.006 mg/cm^2. The standard N,N-diethyl-3-methylbenzamide (DEET) was also tested at the same concentration levels to serve as a control and a comparison for relative repellency. A 50 cm^2 (5 cm×10 cm) patch of muslin cloth was rolled lengthwise and placed into each of the glass vials and scaled with a screwtop so it soaked up the solution. Just prior to the experiment, the pieces of treated cloth were removed from the vials, affixed to card stock tabs (5 cm×3 cm) with staples, and hung with masking tape on a rack to dry and allow acetone to evaporate. Volunteers wore a latex glove over their hands, a nylon stocking over their arm, and then wrapped a plastic Velcro-sealed sleeve over their entire forearm with a 32 cm^2 (4 cm×8 cm) window cut-out to allow mosquitoes to bite through. The nylon stocking acted as a barrier between the dried cloth and the skin, an additional precaution with experimental compounds. Dried cloth patches were stretched across the window in the plastic sleeve and held in place with masking tape. Volunteers placed their sleeve-covered arms into a screened cage for a one minute period with approximately 500 female Ae. aegypti mosquitoes that had been preselected for host-seeking behavior using a draw box (Posey, K. H., and C. E. Schreck, Mosquito News, 41: 566-568 (1981)). […] The MED recorded was the lowest passing concentration level tested for the experimental compound. […] All human volunteers in the study provided informed consent to participate of a protocol approved by the University of Florida Human Use Institutional Review Board (IRB #636-2005).

Experiment [2] concerns Ae. aegypti. Put plainly: Complete Protection Time test on treated cloth (duration of protection). Type of experiment: in vivo, Aedes aegypti. As to conditions: Dosage 0.75 mg/cm^2 on cloth; for Duration of protection against Ae. aegypti, M-3 Days Protection: subject M-3. As to the method: Bioassay for mosquito repellent activity: Repellency screening test for experimental chemicals were carried out to identify candidates that might be useful repellents. The repellent efficacy was compared to that of the standard repellent, DEET. Experimental compounds were assessed in one of two ways: (1) a range of concentration was evaluated to determine the minimum effective dosage (MED) which was the concentration threshold of where the repellent began to fail and allowed bites, or (2) a predetermined concentration of each repellent was applied to cloth and the activity was evaluated over several days (or in some cases months) (Katritzky, A. R., et al., Proc. Nat. Acad. Sci. (US), 105, 7359-7364 (2008); Katritzky, A. R., et al., Journal of Med. Entomol., 47: 924-938 (2010)). When conducting assays for repellency, a failure point was also predetermined for those measurements. Since experiments described herein used about 500 female mosquitoes per test, the failure point was set at 1% (equal to 5 bites) received during a test interval. From 3 to 5 volunteers participated in the screening of each set of chemicals. Complete Protection Time Test: Complete protection time (CPT) on treated cloth is a method of screening that is used to determine the repellent duration for experimental chemicals that have not been examined for safe use on humans. The standard repellent DEET was used as a positive control as a benchmark by which to compare the repellents. Experimental compounds were prepared in solution by combining 0.075 g of experimental chemical with 1 mL of acetone in a 7.1-mL screwtop glass vial. The same concentration level of DEET was also prepared in this way to serve as a control and a comparison for relative repellency. A 50 cm^2 (5 cm×10 cm) patch of muslin cloth was rolled lengthwise and placed into each of the glass vials and sealed with a screwtop so it soaked up the solution. Just prior to the experiment, the pieces of treated cloth were removed from the vials, affixed to card stock tabs (5 cm×3 cm) with staples, and hung with masking tape on a rack to dry and allowed the volatile acetone to evaporate. Similar to the MED tests, volunteers wore a latex glove over their hands, a nylon stocking over their arm, and then wrapped a plastic Velcro-sealed sleeve over their entire forearm with a 32 cm^2 (4 cm×8 cm) window cut-out to allow mosquitoes to bite through. Dried cloth patches were stretched across the window in the plastic sleeve and held in place with masking tape. Volunteers placed their sleeve-covered arms into a screened cage for a one minute period with approximately 500 female Ae. aegypti mosquitoes that had been preselected for host-seeking behavior using a draw box. A cloth patch that received a 1% bite through level, equal to 5 mosquitoes that bit out of 500 mosquitoes, was considered a failure at that concentration. If 0-4 bites were received, then the treated cloth was still considered to be repellent at that concentration. The duration was recorded as the number of days an experimental chemical received a passing result, with day 0 being the day the sample was first dried. […] As with the tests conducted to determine CPT, volunteers in the study provided informed consent (IRB protocol #636-2005). The protocol was approved by the University of Florida Human Use Institutional Review Board.

As for `CC1(C)C=Cc2cc(CCO)ccc2O1` [Compound 9], in the experiment with Ae. aegypti [1], the “Ae. aegypti Minimum Effective Dosage, F1” value is reported as 0.375 mg/cm^2; the “Ae. aegypti Minimum Effective Dosage, M1” value was found to be 0.375 mg/cm^2; the “Ae. aegypti Minimum Effective Dosage, M2” value came to 0.375 mg/cm^2; the “Ae. aegypti Minimum Effective Dosage, Average” value is 0.375 mg/cm^2. Further, in the experiment with Ae. aegypti [2], the “Duration of protection, Proportion to DEET” value (shortened to “Duration … to DEET”) is reported as 0.50 and the “Duration of protection against Ae. aegypti, M-3 Days Protection” value (shortened to “Duration of protection … M-3 Days Protection”) came out at 1 days.

For the compound `CC1(C)C=Cc2c(CO)ccc(Cl)c2O1` [Compound 11, (8-chloro-2,2-dimethyl-2H-chromen-5-yl)methanol], the “mosquito repellent activity against Ae. aegypti (in words)” value in the experiment with Ae. aegypti [1] (MED test on treated cloth) is on record as “act as mosquito repellents”. For the same compound, in the experiment on Ae. aegypti [1], the “Ae. aegypti Minimum Effective Dosage, F1” value is 0.011 mg/cm^2; the “Ae. aegypti Minimum Effective Dosage, M1” value is given as 0.011 mg/cm^2; the “Ae. aegypti Minimum Effective Dosage, M2” value is 0.011 mg/cm^2; the “Ae. aegypti Minimum Effective Dosage, Average” value came to 0.011 mg/cm^2. For the same compound, in the experiment with Ae. aegypti [2], the “Duration … to DEET” value was 1.00.

Consider `CC1(C)C=Cc2c(C(=O)O)ccc(Cl)c2O1` [Compound 13, 8-chloro-2,2-dimethyl-2H-chromene-5-carboxylic acid], for which, in the experiment on Ae. aegypti [1], the “Ae. aegypti Minimum Effective Dosage, F1” value is on record as greater than 1.500 mg/cm^2; the “Ae. aegypti Minimum Effective Dosage, M1” value was greater than 1.500 mg/cm^2; the “Ae. aegypti Minimum Effective Dosage, M2” value is on record as greater than 1.500 mg/cm^2. In the experiment on Ae. aegypti [2], the “Duration … to DEET” value came to 0.50 and the “Duration of protection … M-3 Days Protection” value came out at 1 days.

For the compound `CC1(C)C=Cc2cc(Cl)ccc2O1` [Compound 17], in the experiment on Ae. aegypti [2], the “Duration … to DEET” value amounted to 0.50 and the “Duration of protection … M-3 Days Protection” value came to 1 days.
